Data taken from ChEMBL document CHEMBL5291721, “A preclinical secondary pharmacology resource illuminates target-adverse drug reaction associations of marketed drugs” (Nat Commun, 2023).

Experiments:
[1] = target: T1, Alpha-2C adrenergic receptor (Homo sapiens, UniProt P18825); type: functional
T1 sequence (P18825 whole entry): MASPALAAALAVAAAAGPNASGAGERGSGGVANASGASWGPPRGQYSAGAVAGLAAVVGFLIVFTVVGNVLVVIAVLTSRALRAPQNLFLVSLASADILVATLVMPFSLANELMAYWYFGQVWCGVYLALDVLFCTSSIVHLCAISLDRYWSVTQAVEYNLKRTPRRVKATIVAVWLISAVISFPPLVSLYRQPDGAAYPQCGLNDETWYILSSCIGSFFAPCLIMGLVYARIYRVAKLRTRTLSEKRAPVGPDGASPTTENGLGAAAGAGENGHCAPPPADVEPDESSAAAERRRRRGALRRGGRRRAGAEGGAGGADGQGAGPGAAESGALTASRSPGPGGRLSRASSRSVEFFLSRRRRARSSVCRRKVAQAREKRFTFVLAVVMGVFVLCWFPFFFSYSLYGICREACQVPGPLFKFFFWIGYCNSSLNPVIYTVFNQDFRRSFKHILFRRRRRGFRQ

[2] = target: Kappa-type opioid receptor (Homo sapiens, UniProt P41145)
Sequence of Kappa-type opioid receptor (P41145 whole entry): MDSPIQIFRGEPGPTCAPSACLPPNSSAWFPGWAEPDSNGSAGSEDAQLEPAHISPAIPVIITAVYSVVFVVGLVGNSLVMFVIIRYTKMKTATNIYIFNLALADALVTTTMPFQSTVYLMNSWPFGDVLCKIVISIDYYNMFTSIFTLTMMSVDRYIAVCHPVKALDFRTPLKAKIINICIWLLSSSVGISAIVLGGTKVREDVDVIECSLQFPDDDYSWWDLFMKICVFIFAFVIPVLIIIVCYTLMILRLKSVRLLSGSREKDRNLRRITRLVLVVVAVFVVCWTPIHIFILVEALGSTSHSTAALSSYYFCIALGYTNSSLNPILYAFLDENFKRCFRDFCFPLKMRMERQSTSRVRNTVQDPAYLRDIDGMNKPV

Melanocortin receptor 3 = Melanocortin receptor 3 (Homo sapiens, UniProt P41968)
Sequence of Melanocortin receptor 3 (P41968 whole entry): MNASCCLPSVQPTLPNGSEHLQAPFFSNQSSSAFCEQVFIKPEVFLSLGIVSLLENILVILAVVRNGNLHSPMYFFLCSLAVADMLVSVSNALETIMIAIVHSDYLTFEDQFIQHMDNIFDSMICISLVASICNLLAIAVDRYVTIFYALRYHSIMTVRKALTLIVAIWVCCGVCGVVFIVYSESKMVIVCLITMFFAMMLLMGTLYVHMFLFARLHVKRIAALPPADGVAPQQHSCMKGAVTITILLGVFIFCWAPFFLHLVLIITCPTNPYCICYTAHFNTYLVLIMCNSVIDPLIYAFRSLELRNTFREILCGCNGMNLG

[3] = target: T2, Alpha-1A adrenergic receptor (Homo sapiens, UniProt P35348); type: functional, cell-based
T2 sequence (P35348 whole entry): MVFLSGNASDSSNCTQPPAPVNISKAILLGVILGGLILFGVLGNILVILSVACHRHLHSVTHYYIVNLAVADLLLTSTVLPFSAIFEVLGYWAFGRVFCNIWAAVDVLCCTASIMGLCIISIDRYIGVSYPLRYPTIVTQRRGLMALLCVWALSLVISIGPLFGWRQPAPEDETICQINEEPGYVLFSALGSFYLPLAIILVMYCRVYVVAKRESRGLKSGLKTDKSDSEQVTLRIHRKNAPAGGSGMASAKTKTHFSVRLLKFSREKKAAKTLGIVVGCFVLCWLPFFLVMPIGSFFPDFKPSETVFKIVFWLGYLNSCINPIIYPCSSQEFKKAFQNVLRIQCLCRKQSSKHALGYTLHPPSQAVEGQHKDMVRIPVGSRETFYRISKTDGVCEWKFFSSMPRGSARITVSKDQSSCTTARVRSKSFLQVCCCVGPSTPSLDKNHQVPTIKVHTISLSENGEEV

[4] = target: T3, Muscarinic acetylcholine receptor M1 (Homo sapiens, UniProt P11229); type: functional, cell-based
T3 sequence (P11229 whole entry): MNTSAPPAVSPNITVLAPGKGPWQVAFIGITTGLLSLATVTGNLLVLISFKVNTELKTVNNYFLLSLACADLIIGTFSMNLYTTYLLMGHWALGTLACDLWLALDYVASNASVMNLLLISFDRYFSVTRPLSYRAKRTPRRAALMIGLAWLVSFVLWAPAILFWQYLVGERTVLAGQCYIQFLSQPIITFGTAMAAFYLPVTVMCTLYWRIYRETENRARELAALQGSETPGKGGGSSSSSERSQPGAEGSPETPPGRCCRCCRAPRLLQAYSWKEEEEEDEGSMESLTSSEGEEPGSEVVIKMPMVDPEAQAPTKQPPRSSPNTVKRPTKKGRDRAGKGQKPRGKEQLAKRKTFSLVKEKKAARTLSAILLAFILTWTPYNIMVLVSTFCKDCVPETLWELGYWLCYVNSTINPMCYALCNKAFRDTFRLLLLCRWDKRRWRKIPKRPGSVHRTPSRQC

D(1A) dopamine receptor = D(1A) dopamine receptor (Homo sapiens, UniProt P21728); type: functional, cell-based
Sequence of D(1A) dopamine receptor (P21728 whole entry): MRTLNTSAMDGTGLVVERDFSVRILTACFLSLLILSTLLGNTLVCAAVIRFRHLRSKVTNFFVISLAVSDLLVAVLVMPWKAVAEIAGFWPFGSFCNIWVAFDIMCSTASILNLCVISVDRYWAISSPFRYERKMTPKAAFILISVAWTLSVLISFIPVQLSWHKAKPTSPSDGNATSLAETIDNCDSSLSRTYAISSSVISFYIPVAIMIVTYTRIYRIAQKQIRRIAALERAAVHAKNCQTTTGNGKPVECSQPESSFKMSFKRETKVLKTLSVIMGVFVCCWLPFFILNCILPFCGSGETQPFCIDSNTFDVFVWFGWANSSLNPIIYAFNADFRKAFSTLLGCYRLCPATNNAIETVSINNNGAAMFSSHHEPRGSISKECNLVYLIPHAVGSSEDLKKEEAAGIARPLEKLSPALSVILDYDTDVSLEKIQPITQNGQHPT

[5] = target: T4, Prostaglandin G/H synthase 1 (Rattus norvegicus, UniProt Q63921); type: functional
T4 sequence (Q63921 whole entry): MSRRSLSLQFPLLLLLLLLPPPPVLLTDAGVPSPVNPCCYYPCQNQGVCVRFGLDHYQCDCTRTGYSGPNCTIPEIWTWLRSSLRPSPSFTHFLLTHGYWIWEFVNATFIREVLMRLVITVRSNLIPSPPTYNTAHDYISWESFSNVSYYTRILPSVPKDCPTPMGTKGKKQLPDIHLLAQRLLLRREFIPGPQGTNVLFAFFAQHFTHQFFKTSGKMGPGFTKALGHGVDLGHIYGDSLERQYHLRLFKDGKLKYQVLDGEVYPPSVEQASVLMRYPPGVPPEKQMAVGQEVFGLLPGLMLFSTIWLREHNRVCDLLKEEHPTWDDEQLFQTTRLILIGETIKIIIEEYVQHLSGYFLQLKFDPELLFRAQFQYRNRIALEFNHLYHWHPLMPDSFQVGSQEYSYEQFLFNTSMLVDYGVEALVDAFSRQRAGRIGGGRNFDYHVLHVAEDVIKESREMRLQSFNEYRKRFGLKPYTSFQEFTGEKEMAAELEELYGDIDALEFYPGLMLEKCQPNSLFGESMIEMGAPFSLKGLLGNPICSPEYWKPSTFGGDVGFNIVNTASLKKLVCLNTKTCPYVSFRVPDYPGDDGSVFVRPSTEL

[6] = target: T2, Alpha-1A adrenergic receptor; type: functional, cell-based; remark: listed apart in the source
[7] = target: Sodium-dependent dopamine transporter (Homo sapiens, UniProt Q01959)
Sequence of Sodium-dependent dopamine transporter (Q01959 whole entry): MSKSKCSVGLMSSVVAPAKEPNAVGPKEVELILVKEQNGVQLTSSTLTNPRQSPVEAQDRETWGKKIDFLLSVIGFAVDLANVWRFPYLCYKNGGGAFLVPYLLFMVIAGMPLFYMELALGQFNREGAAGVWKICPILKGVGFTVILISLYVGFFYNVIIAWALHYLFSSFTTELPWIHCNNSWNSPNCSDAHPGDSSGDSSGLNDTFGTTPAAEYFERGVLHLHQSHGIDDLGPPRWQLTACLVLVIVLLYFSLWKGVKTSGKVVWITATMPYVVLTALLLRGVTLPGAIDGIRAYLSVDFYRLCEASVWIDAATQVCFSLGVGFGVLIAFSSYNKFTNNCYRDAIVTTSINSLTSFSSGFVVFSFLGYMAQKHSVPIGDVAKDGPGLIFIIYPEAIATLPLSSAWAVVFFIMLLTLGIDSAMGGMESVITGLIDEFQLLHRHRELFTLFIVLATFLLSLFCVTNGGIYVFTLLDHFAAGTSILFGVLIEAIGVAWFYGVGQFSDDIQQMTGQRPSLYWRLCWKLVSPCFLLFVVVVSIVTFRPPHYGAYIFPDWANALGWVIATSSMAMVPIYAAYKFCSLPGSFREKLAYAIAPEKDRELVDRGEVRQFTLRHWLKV

[8] = target: Vascular endothelial growth factor receptor 2 (Homo sapiens, UniProt P35968); type: functional
Sequence of Vascular endothelial growth factor receptor 2 (P35968 whole entry): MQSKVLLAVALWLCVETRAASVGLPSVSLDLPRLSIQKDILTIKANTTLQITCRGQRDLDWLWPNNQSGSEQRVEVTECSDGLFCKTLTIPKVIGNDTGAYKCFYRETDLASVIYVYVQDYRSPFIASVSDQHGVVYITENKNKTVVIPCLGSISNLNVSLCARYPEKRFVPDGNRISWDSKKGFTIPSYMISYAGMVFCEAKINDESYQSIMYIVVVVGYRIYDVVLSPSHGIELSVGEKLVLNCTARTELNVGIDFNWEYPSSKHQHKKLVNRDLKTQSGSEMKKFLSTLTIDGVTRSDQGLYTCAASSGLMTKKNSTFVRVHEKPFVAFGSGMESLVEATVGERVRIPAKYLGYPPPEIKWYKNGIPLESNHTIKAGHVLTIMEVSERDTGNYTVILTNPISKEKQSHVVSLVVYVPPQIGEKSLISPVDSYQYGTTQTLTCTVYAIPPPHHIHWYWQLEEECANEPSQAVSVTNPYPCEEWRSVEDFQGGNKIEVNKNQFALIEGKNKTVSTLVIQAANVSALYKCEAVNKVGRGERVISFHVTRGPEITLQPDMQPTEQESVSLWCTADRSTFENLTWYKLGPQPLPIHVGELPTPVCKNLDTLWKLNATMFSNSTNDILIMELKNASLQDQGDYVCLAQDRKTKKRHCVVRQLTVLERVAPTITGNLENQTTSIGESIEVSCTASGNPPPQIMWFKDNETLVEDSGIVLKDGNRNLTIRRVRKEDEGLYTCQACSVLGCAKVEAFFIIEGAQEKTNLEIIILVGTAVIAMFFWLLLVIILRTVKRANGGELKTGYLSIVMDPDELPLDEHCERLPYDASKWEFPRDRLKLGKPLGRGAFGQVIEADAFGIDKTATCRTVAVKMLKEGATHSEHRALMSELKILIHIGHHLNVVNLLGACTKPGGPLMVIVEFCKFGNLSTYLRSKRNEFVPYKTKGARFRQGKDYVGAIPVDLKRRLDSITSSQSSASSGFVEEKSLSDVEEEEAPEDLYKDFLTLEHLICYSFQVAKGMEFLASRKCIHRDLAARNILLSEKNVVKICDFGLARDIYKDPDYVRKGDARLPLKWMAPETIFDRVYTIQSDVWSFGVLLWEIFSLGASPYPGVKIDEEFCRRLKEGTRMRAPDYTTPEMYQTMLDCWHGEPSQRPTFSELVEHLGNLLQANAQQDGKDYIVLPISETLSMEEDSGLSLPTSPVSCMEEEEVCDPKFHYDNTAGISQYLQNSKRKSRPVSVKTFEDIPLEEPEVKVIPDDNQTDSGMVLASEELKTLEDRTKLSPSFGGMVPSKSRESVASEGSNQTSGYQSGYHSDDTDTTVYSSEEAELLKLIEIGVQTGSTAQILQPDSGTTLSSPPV

[9] = target: T5, Neuropeptide Y receptor type 1 (Homo sapiens, UniProt P25929); conditions: read-out: AC50
T5 sequence (P25929 whole entry): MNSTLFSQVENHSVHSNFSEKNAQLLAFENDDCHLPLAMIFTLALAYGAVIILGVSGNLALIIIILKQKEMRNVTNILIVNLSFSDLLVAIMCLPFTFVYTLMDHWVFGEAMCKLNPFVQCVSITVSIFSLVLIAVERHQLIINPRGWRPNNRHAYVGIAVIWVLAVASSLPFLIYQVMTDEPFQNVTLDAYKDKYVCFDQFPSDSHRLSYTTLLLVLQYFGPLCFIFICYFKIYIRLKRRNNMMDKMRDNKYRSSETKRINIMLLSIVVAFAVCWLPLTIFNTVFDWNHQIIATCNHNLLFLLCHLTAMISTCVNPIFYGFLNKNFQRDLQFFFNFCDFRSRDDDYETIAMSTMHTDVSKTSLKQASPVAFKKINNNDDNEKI
Further: assay procedure not described here.

Compound	AC50 [1] [µM]	AC50 [2] [µM]	AC50 (Melanocortin receptor 3) [µM]	AC50 [3] [µM]	AC50 [4] [µM]	AC50 (D(1A) dopamine receptor) [µM]	AC50 [5] [µM]	AC50 [6] [µM]	AC50 [7] [µM]	AC50 [8] [µM]	AC50 [9] [µM]
CC(=O)O[C@]1(C(C)=O)CC[C@H]2[C@@H]3C=C(C)C4=CC(=O)CC[C@@H]4[C@H]3CC[C@@]21C [NOMEGESTROL ACETATE]	> 30	> 30	> 30	> 30	> 30	> 30	> 30	> 30	> 30	–	–
CC(C)Cc1ccc(C(C)C(=O)O)cc1 (stereo not given) [IBUPROFEN]	> 10	> 10	> 30	> 30	–	> 10	–	> 30	> 30	> 30	> 30
C[N+](C)(C)C[C@H](O)CC(=O)[O-] [LEVOCARNITINE]	–	–	–	> 30	–	–	–	–	–	> 30	–
CCc1nc(C(N)=O)c(Nc2ccc(N3CCC(N4CCN(C)CC4)CC3)c(OC)c2)nc1NC1CCOCC1 [GILTERITINIB]	–	–	–	> 30	> 30	–	–	–	–	–	–
C[C@H]1O[C@@H](n2cc(F)c(=O)[nH]c2=O)[C@H](O)[C@@H]1O [DOXIFLURIDINE]	–	–	–	> 30	–	–	–	–	–	> 30	–
N#Cc1ccc2c(c1)N(CCCN1CCC(O)CC1)c1ccccc1S2 [PERICIAZINE]	–	–	–	–	> 30	–	–	–	–	–	–
CN(C)CCc1c[nH]c2ccc(Cn3cncn3)cc12 [RIZATRIPTAN]	20.8	> 30	> 30	–	–	> 30	> 30	> 30	> 10	–	> 30
COc1ccccc1Oc1c(NS(=O)(=O)c2ccc(C(C)(C)C)cc2)nc(-c2ncccn2)nc1OCCO [BOSENTAN]	> 10	> 10	> 30	–	–	> 10	> 30	> 30	> 30	–	> 30
CN(C)[C@@H]1C(O)=C(C(N)=O)C(=O)[C@@]2(O)C(O)=C3C(=O)c4c(O)ccc(Cl)c4[C@@](C)(O)[C@H]3C[C@@H]12 [CHLORTETRACYCLINE]	–	–	–	> 30	–	–	–	–	–	> 30	–
C[C@]12C=CC(=O)N[C@@H]1CC[C@@H]1[C@@H]2CC[C@]2(C)[C@@H](C(=O)Nc3cc(C(F)(F)F)ccc3C(F)(F)F)CC[C@@H]12 [DUTASTERIDE]	> 10	> 10	> 10	–	–	> 10	> 10	> 30	> 10	–	> 10
O=C(O)COc1ccc(C(=O)c2cccs2)c(Cl)c1Cl	–	–	–	> 30	–	–	–	–	–	> 30	–
Cc1onc(-c2ccccc2)c1-c1ccc(S(N)(=O)=O)cc1 [VALDECOXIB]	> 10	> 10	> 30	> 30	–	> 10	> 30	> 30	> 30	> 30	> 30
CC(C)c1nc(N(C)S(C)(=O)=O)nc(-c2ccc(F)cc2)c1/C=C/[C@@H](O)C[C@@H](O)CC(=O)O [ROSUVASTATIN]	> 30	> 30	> 30	–	–	> 30	> 30	> 30	> 30	–	> 30
CCCN(CCC)C(=O)Cc1c(-c2ccc(Cl)cc2)nc2ccc(Cl)cn12 [ALPIDEM]	> 30	13	> 30	> 30	> 30	> 30	> 30	–	> 30	–	> 30
C[C@H]1c2cccc(O)c2C(=O)C2=C(O)[C@]3(O)C(=O)C(C(N)=O)=C(O)[C@@H](N(C)C)[C@@H]3[C@@H](O)[C@@H]21 [DOXYCYCLINE]	> 10	> 10	> 30	–	–	> 10	> 30	> 30	> 10	–	> 30
CC(CCc1ccccc1)NCC(O)c1ccc(O)c(C(N)=O)c1 (stereo not given) [LABETALOL]	–	–	–	–	–	–	–	–	–	> 30	–
COc1cc2nccc(Oc3ccc(NC(=O)C4(C(=O)Nc5ccc(F)cc5)CC4)cc3)c2cc1OC [CABOZANTINIB]	26	–	> 30	> 30	> 30	> 30	> 30	> 30	> 30	–	–
OC[C@H]1O[C@@H](c2ccc(F)c(Cc3cc4ccccc4s3)c2)[C@H](O)[C@@H](O)[C@@H]1O [IPRAGLIFLOZIN]	–	–	–	> 30	> 30	–	–	–	–	–	–
C[C@]1(Cn2ccnn2)[C@H](C(=O)O)N2C(=O)C[C@H]2S1(=O)=O [TAZOBACTAM]	–	–	–	> 30	–	–	–	–	–	> 30	–
COc1ccc(CC2c3cc(OC)c(OC)cc3CC[N+]2(C)CCC(=O)OCCCCCOC(=O)CC[N+]2(C)CCc3cc(OC)c(OC)cc3C2Cc2ccc(OC)c(OC)c2)cc1OC (stereo not given)	2.7	22	> 30	–	–	> 30	> 30	> 30	> 30	–	> 30
COc1ccccc1OCCNCC(O)COc1cccc2[nH]c3ccccc3c12 (stereo not given) [CARVEDILOL]	0.061	18.9	28.8	–	–	> 10	> 30	> 30	4.53	–	25.3
CC1=C(/C=C/C(C)=C/C=C/C(C)=C/C(=O)O)C(C)(C)CCC1 [TRETINOIN]	–	–	–	> 30	–	–	–	–	–	> 30	–
O=C1CCc2cc(OCCCCc3nnnn3C3CCCCC3)ccc2N1 [CILOSTAZOL]	> 30	3.06	> 30	–	–	> 30	> 30	> 30	> 30	–	> 30
C[C@@H](NCCCc1cccc(C(F)(F)F)c1)c1cccc2ccccc12	0.83	> 30	13	–	–	> 30	> 30	> 30	6.4	–	> 10
